According to ChEMBL document CHEMBL6177981, “Bardoxolone Derivatives as Novel Pseudo-Natural Necroptosis Inhibitors by Destabilizing HSP90 Client Proteins” (J Med Chem, 2025):
Activity calls are given as the source filed them. The rule behind the calls is not given here.

How the values were obtained:
HT-29 [1] = assay: Anti-necroptotic activity in TSZ-induced human HT-29 cells assessed as increase in cell viability at 2.5 uM preincubated with compound followed by Z-VAD-FMK, SM164 and TNFalpha addition and measured after 12 hrs by CellTiter-Lumi luminescent cell viability assay relative to control; assay type: functional
HT-29 [2] = assay: Anti-necroptotic activity in TCZ-induced human HT-29 cells assessed as increase in cell viability at 1.25 uM preincubated with compound followed by Z-VAD-FMK, cycloheximide and TNFalpha addition and measured after 16 hrs by CellTiter-Lumi luminescent cell viability assay relative to control; assay type: functional
[3] = Acute toxicity in male C57BL/6J mouse assessed as inflammatory cell infiltration in intestine at 2 g/Kg, IG measured after 72 hrs by H and E staining based analysis; assay type: tissue-based; settings: in vivo, po, 2000 mg/kg
HeLa [4] = assay: Downregulation of EGFR expression in RIPK3-deficient human HeLa cells at 0.75 to 6 uM incubated for 9 hrs by Western blot analysis; assay type: functional, cell-based; settings: dose 0.75-6 µM
Mus musculus [5] = assay: (§1) Anti-necroptotic activity in TNFalpha/Z-VAD-FMK induced SIRS male C57BL/6J mouse model assessed as reduction in IL6 in spleen at 5 to 10 mg/kg, po pre-administered with compound via gavage for 2 hrs followed by […] of Z-VAD-FMK stimulation for 15 mins with subsequent TNF-alpha stimulation for 1 hrs and re-current […] of Z-VAD-FMK stimulation and measured after 8 hrs post SIRS induction by ELISA; assay type: functional, organism-based; settings: dose 5-10 mg/kg, time 10.0 hrs
[6] = Acute toxicity in male C57BL/6J mouse assessed as inflammatory cell infiltration in lung at 2 g/Kg, IG measured after 72 hrs by H and E staining based analysis; assay type: tissue-based; settings: in vivo, po, 2000 mg/kg
Mus musculus [7] = assay: as §1, with “survival rate” for “reduction in IL6 in spleen”, “2.5” for “5 to 10”, “relative to control” for “by ELISA”; assay type: functional; settings: time 10 hrs
HT-29 [8] = assay: Upregulation of HSP70 protein level in TSZ-induced human HT-29 cells at 0.625 to 10 uM preincubated with compound followed by Z-VAD-FMK, SM164 and TNFalpha stimulation and measured after 6 hrs by Western blot analysis; assay type: functional, cell-based; settings: dose 0.625-10 µM
[9] = molecular target: T1, Receptor-interacting serine/threonine-protein kinase 1 (Homo sapiens) (UniProt Q13546); assay: Inhibition of RIPK1 activation in TSZ-induced human HT-29 cells at 10 uM preincubated with compound followed by Z-VAD-FMK, SM164 and TNFalpha stimulation and measured after 6 hrs by Western blot analysis; assay type: cell-based
T1 sequence (whole entry): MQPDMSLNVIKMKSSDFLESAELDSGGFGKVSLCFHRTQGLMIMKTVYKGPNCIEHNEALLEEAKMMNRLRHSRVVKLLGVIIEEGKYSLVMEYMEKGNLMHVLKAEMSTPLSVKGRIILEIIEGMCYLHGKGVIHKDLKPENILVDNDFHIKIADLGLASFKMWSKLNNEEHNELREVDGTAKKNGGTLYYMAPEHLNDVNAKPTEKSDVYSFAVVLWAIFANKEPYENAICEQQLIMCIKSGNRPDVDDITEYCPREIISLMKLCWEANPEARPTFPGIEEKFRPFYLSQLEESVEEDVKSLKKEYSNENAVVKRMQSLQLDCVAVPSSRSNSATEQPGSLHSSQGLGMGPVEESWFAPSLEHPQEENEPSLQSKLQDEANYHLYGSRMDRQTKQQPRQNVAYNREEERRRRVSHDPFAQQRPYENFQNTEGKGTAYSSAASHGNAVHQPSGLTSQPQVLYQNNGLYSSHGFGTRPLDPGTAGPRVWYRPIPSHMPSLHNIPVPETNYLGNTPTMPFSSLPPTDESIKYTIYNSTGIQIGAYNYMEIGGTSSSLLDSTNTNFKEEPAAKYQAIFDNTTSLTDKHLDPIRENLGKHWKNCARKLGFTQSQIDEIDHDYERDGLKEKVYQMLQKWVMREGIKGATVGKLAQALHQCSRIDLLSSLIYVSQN

RAW264.7 [10] = assay: Anti-necroptotic activity in LZ-induced mouse RAW264.7 cells assessed as increase in cell viability at 5 to 10 uM preincubated with compound followed by LPS and Z-VAD-FMK stimulation and measured after 16 hrs by CellTiter-Lumi luminescent cell viability assay; assay type: functional, cell-based; settings: dose 5-10 µM
HeLa [11] = assay: Inhibition of RIPK1 protein expression in RIPK3-deficient human HeLa cells at 6 uM preincubated with MG132 for 2 hrs followed by compound addition and measured after 9 hrs by Western blot analysis; assay type: functional, cell-based
RAW264.7 [12] = assay: Anti-necroptotic activity in LZ-induced mouse RAW264.7 cells assessed as increase in cell viability preincubated with compound followed by LPS and Z-VAD-FMK stimulation and measured after 16 hrs by CellTiter-Lumi luminescent cell viability assay; assay type: functional, cell-based
HT-29 [13] = assay: Downregulation of RIPK1 protein level in human HT-29 cells at 6 uM preincubated with MG132 for 2 hrs followed by compound addition and measured after 9 hrs by Western blot analysis; assay type: functional, cell-based

Structure (SMILES): Cn1ccc(-c2ccc(NC(=O)[C@]34CCC(C)(C)C[C@H]3[C@H]3C(=O)C=C5[C@@]6(C)C=C(C#N)C(=O)C(C)(C)[C@@H]6CC[C@@]5(C)[C@]3(C)CC4)cc2)n1
- Activity (HT-29 [1]): 100%
- Activity (HT-29 [2]): 100%
- Activity [3]: Non-toxic
- Activity (HeLa [4]): Active
- Activity (Mus musculus [5]): Active
- Activity [6]: Non-toxic
- survival at 2.5 mg/kg (Mus musculus [7]): 35%
- Activity (HT-29 [8]): inactive
- inhibition [9]: Active
- Activity (RAW264.7 [10]): Active; Much Better Activity Observed
- inhibition (HeLa [11]): Active
- Activity (RAW264.7 [12]): Dose-dependent-effect
- Activity (HT-29 [13]): Active
